Data from ChEMBL document CHEMBL3769333, “A mode of action study of cationic anthraquinone analogs: a new class of highly potent anticancer agents” (Medchemcomm, 2015).
The source made the active and inactive calls. The calls are words filed in the database; no cut-off is given here.

Key:
[1] = Induction of ROS level in anhydrous acetonitrile electrolyte assessed as first half wave redox potential at 2 mM using Ag/AgCl reference electrode by cyclic voltammetry; format: physicochemical; details: 2000 µM
[2] = Induction of ROS level in anhydrous acetonitrile electrolyte assessed as second half wave redox potential at 2 mM using Ag/AgCl reference electrode by cyclic voltammetry; format: physicochemical; details: 2000 µM
[3] = Cytotoxicity against human NCI60 cells assessed as cell growth relative to control; format: functional; design: concentration or dose not given beside the values
Escherichia coli [4] = test: Induction of Escherichia coli supercoiled pUC19 DNA cleavage at 240 uM after 24 hrs by agarose gel electrophoresis
Escherichia coli [5] = test: Induction of Escherichia coli supercoiled pUC19 DNA cleavage assessed as appearance of nicked supercoiled DNA after 24 hrs by agarose gel electrophoresis in absence of transition metal complex, light irradiation or oxidative reagent
[6] = Induction of ROS level assessed as half reduction potential using saturated calomel electrode by cyclic voltammetry; format: physicochemical
[7] = Induction of ROS level assessed as half reduction potential using Ag/AgCl reference electrode by cyclic voltammetry; format: physicochemical
A549 [8] = test: Growth inhibition of human A549 cells assessed as reduction in cell viability after 48 hrs by MTT assay; format: functional, cell-based; details: A549, 48 h
[9] = Growth inhibition of human […] cells assessed as reduction in cell viability after 48 hrs by MTT assay; format: cell-based
A549 [10] = test: Selectivity index, ratio of IC50 for human […] cells to IC50 for human A549 cells; format: functional
A549 [11] = test: Induction of apoptosis in human A549 cells assessed as increase in ROS level at 10 uM after 4 hrs by DCFH-DA staining based flow cytometry relative to control; format: functional
A549 [12] = test: Cell cycle arrest in human A549 cells assessed as accumulation at sub G1 phase at 0.01 to 100 uM after 24 hrs by propidium idoide staining based flow cytometry; format: functional
A549 [13] = test: Cell cycle arrest in human A549 cells assessed as accumulation at G1 phase at 0.01 to 100 uM after 24 hrs by propidium idoide staining based flow cytometry; format: functional
A549 [14] = test: Cell cycle arrest in human A549 cells assessed as accumulation at S phase at 0.01 to 100 uM after 24 hrs by propidium idoide staining based flow cytometry; format: functional
A549 [15] = test: Cell cycle arrest in human A549 cells assessed as accumulation at G2 phase at 0.01 to 100 uM after 24 hrs by propidium idoide staining based flow cytometry; format: functional
A549 [16] = test: Induction of apoptosis in human A549 cells assessed as apoptotic cells at 0.01 uM after 24 hrs by Annexin V/propidium iodide staining based flow cytometry (reference value: 7.7%); format: functional
A549 [17] = test: Induction of apoptosis in human A549 cells assessed as apoptotic cells at 0.1 uM after 24 hrs by Annexin V/propidium iodide staining based flow cytometry (reference value: 7.7%); format: functional
A549 [18] = test: Induction of apoptosis in human A549 cells assessed as apoptotic cells at 1 uM after 24 hrs by Annexin V/propidium iodide staining based flow cytometry (reference value: 7.7%); format: functional
A549 [19] = test: Induction of apoptosis in human A549 cells assessed as apoptotic cells at 10 uM after 24 hrs by Annexin V/propidium iodide staining based flow cytometry (reference value: 7.7%); format: functional
A549 [20] = test: Induction of apoptosis in human A549 cells assessed as apoptotic cells at 100 uM after 24 hrs by Annexin V/propidium iodide staining based flow cytometry (reference value: 7.7%); format: functional
A549 [21] = test: Induction of apoptosis in human A549 cells assessed as cell shrinkage at 1 to 100 uM after 24 hrs by microscopy; format: functional, cell-based
A549 [22] = test: Induction of apoptosis in human A549 cells assessed as nuclear condensation at 100 uM after 24 hrs by microscopy; format: functional, cell-based
A549 [23] = test: Induction of apoptosis in human A549 cells assessed as mitochondrial membrane damage at 100 uM after 24 hrs by microscopy; format: functional, cell-based
A549 [24] = test: Induction of apoptosis in human A549 cells assessed as increase in ROS level at 100 uM after 4 hrs by DCFH-DA staining based flow cytometry relative to control; format: functional
A549 [25] = test: Induction of apoptosis in human A549 cells assessed as increase in ROS level at 10 to 100 nM after 4 hrs by DCFH-DA staining based flow cytometry; format: functional, cell-based
A549 [26] = test: Reduction of glutathione level in human A549 cells at 0.1 uM after 48 hrs by fluorometric assay; format: functional; design: scale not given: the % may be the effect or the level left
A549 [27] = test: Reduction of glutathione level in human A549 cells at 1 uM after 48 hrs by fluorometric assay; format: functional; design: scale not given: the % may be the effect or the level left
A549 [28] = test: Reduction of glutathione level in human A549 cells at 10 uM after 48 hrs by fluorometric assay; format: functional; design: scale not given: the % may be the effect or the level left
A549 [29] = test: Reduction of glutathione level in human A549 cells at 100 uM after 48 hrs by fluorometric assay; format: functional; design: scale not given: the % may be the effect or the level left
A549 [30] = test: Reduction of glutathione in human A549 cells assessed as glutathione level after 48 hrs by fluorometric assay; format: functional, cell-based
A549 [31] = test: Induction of alteration in mitochondrial membrane potential in human A549 cells after 24 hrs by rhodamine 123 staining based flow cytometry; format: functional, cell-based
A549 [32] = test: Induction of mitochondrial membrane potential loss in human A549 cells at 10 to 100 nM after 24 hrs by rhodamine 123 staining based flow cytometry (reference value: 1.7%); format: functional
A549 [33] = test: Induction of mitochondrial membrane potential loss in human A549 cells at 1 uM after 24 hrs by rhodamine 123 staining based flow cytometry (reference value: 1.7%); format: functional
A549 [34] = test: Induction of mitochondrial membrane potential loss in human A549 cells at 10 uM after 24 hrs by rhodamine 123 staining based flow cytometry (reference value: 1.7%); format: functional
A549 [35] = test: Induction of mitochondrial membrane potential loss in human A549 cells at 100 uM after 24 hrs by rhodamine 123 staining based flow cytometry (reference value: 1.7%); format: functional

For `COc1cc(OC)cc(-n2n[n+](C)c3c2C(=O)c2ccccc2C3=O)c1.O=S(=O)([O-])C(F)(F)F`, the Activity [1] was -182.5 mV, the Activity [2] was -762 mV and the Activity [3] was -27.06%. For the same compound, the Activity (Escherichia coli [4]) was “Active”.
Compound `COc1cc(-n2n[n+](C)c3c2C(=O)c2ccccc2C3=O)cc(OC)c1OC.O=S(=O)([O-])C(F)(F)F` has an Activity [1] of -168 mV, an Activity [2] of -867 mV and an Activity [3] of 23.23%. For the same compound, the Activity (Escherichia coli [4]) was “Active”.
In the case of `Cc1ccc(-n2n[n+](C)c3c2C(=O)c2ccccc2C3=O)cc1.O=S(=O)([O-])C(F)(F)F`, the Activity [1] is reported as -176 mV, the Activity [2] is reported as -881.5 mV and the Activity [3] is reported as 11.53%. For the same compound, the Activity (Escherichia coli [4]) was “Active”.
Work on `C[n+]1nn(-c2ccccc2)c2c1C(=O)c1ccccc1C2=O.O=S(=O)([O-])C(F)(F)F` yielded an Activity [1] of -163.5 mV, an Activity [2] of -866.5 mV and an Activity [3] of -10.18%. The Activity (Escherichia coli [5]) was “Dose-dependent effect”.
For `COC1=C(OC)C(=O)C(C/C=C(\C)CC/C=C(\C)CC/C=C(\C)CC/C=C(\C)CC/C=C(\C)CC/C=C(\C)CC/C=C(\C)CC/C=C(\C)CC/C=C(\C)CCC=C(C)C)=C(C)C1=O` [UBIDECARENONE], the Activity [6] was -602 mV and the Activity [7] was -567 mV.
In the case of `COc1ccc(-n2n[n+](C)c3c2C(=O)c2ccccc2C3=O)cc1.O=S(=O)([O-])C(F)(F)F`, the IC50 (A549 [8]) is reported as 4.2 µM, the IC50 [9] is reported as 35 µM and the “Ratio IC50” value (A549 [10]) is reported as 8. For the same compound, the Activity (A549 [11]) was 133%, the Activity (A549 [12]) was “inactive” and the Activity (A549 [13]) was “inactive”. For the same compound, the Activity (A549 [14]) was “inactive”, the Activity (A549 [15]) was “inactive” and the Activity (A549 [16]) was 8.74%. The Activity (A549 [17]) was 11.06%, the Activity (A549 [18]) was 11.07% and the Activity (A549 [19]) was 35.44%. For the same compound, the Activity (A549 [20]) was 61.28%, the Activity (A549 [21]) was “Active” and the Activity (A549 [22]) was “Active”. For the same compound, the Activity (A549 [23]) was “Active”, the Activity (A549 [24]) was 226% and the Activity (A549 [25]) was “inactive”. For the same compound, the Activity (A549 [26]) was 99.35%, the Activity (A549 [27]) was 88.76% and the Activity (A549 [28]) was 23.87%. The Activity (A549 [29]) was 12.13%, the Activity (A549 [30]) was “Dose-dependent effect” and the Activity (A549 [31]) was “Dose-dependent effect”. The Activity (A549 [32]) was 2.55%, the Activity (A549 [33]) was 4.1% and the Activity (A549 [34]) was 51.4%. For the same compound, the Activity (A549 [35]) was 88.05%, the Activity [1] was -182.5 mV and the Activity [2] was -885 mV. For the same compound, the Activity [3] was -24.7% and the Activity (Escherichia coli [4]) was “Active”.
For `CCCCCCCCn1n[n+](C)c2c1C(=O)c1ccccc1C2=O.O=S(=O)([O-])C(F)(F)F`, the IC50 (A549 [8]) was 83.3 µM, the Activity (A549 [11]) was 108% and the Activity (A549 [24]) was 177%. For the same compound, the Activity (A549 [34]) was 25% and the Activity (A549 [35]) was 50%.
Compound `C[n+]1nn(-c2ccc(F)cc2)c2c1C(=O)c1ccccc1C2=O.O=S(=O)([O-])C(F)(F)F` has an Activity [1] of -156.5 mV, an Activity [2] of -886 mV and an Activity [3] of 43.38%. For the same compound, the Activity (Escherichia coli [4]) was “Active”.
Compound `C[n+]1nn(-c2ccc(C(F)(F)F)cc2)c2c1C(=O)c1ccccc1C2=O.O=S(=O)([O-])C(F)(F)F` has an Activity [1] of -130.5 mV, an Activity [2] of -823.5 mV and an Activity [3] of 58.69%. The Activity (Escherichia coli [4]) was “Active”.
In the case of `COc1ccc(-n2n[n+](C)c3c2C(=O)c2ccccc2C3=O)cc1OC.O=S(=O)([O-])C(F)(F)F`, the Activity [1] is reported as -182 mV, the Activity [2] is reported as -885.5 mV and the Activity [3] is reported as -31.51%. For the same compound, the Activity (Escherichia coli [4]) was “Active”.
For `C[n+]1nn(-c2ccc(Cl)cc2)c2c1C(=O)c1ccccc1C2=O.O=S(=O)([O-])C(F)(F)F`, the Activity [1] was -148.5 mV, the Activity [2] was -842.5 mV and the Activity [3] was 101.7%. For the same compound, the Activity (Escherichia coli [4]) was “Active”.
In the case of `COc1cc([C@@H]2c3cc4c(cc3[C@@H](O[C@@H]3O[C@@H]5CO[C@@H](C)O[C@H]5[C@H](O)[C@H]3O)[C@H]3COC(=O)[C@H]23)OCO4)cc(OC)c1O` [ETOPOSIDE], the IC50 (A549 [8]) is reported as 3.9 µM.
